This is an account of results in patent US20140066385A1, “METHOD FOR TREATING CANCER BY COMBINED USE OF DRUGS” (Astellas Pharma Inc., priority 2011, published 2014).

This assay has as its target T1, purified pig brain-derived tubulin (Sus scrofa, UniProt P02550+P02554).
T1 construct: purified pig brain-derived tubulin (final concentration: 2 mg/mL); purchased Cytoskeleton, Inc. (Denver, Colo., USA); host or cells: pig brain (tissue-purified)
Put plainly: Example 7: fluorescence-based assay of tubulin polymerization reaction. It is filed as biochemical. On the procedure: S-nitroso-N-acetyl-D,L-penicillamine (SNAP), which is a NO donor, was purchased from Cayman Chemical Co. (Ann Arbor, Mich., USA) and used. A tubulin polymerization analysis kit was purchased from Cytoskeleton, Inc. (Denver, Colo., USA) and used. For paclitaxel, a paclitaxel included in the analysis kit was used as paclitaxel. Docetaxel was purchased from Sigma-Aldrich Co. (St. Louis, Mo., USA) and was used as docetaxel.
A fluorescence-based assay of tubulin polymerization reaction was carried out according to the manufacturer's instruction of the kit. That is, purified pig brain-derived tubulin (final concentration: 2 mg/mL) and SNAP (final concentration: 200 or 500 μmol/L) were incubated at room temperature for 15 minutes or longer in the buffer solution included in the kit. Subsequently, paclitaxel (final concentration: 3 μmmol/L) or docetaxel (final concentration: 1 μmol/L), and […] (final concentration: 1 mmol/L) were added to this buffer mixture, and then was incubated for 60 minutes at 37° C. During this incubation, the fluorescence intensity (measurement wavelength: excitation 350 nm/fluorescence 435 nm) was measured every one minute by using a microplate reader (Spectramax, Molecular Devices, LLC, Sunnyvale, Calif., USA). The value of fluorescence intensity was expressed as a percentage relative to the SNAP and taxane-untreated group by using the value obtained 60 minutes after the initiation of the reaction, which corresponded to the equilibrium steady-state phase, and the average value for three experiments was taken as the value.
The results are expressed as the mean value (Mean)±standard error (SEM) of five independent experiments. A comparison between a paclitaxel- or docetaxel-treated group and an untreated group was carried out by an unpaired statistical test (Student's t-test) of the difference between two groups. A comparison between a SNAP-untreated group (control group) and SNAP-treated groups (200 μmol/L and 500 μmol/L) in the presence or absence of the taxane-family drugs was carried out by Dunnett's multiple comparison test. A difference value of less than 5% was considered to be statistically significant. For the data processing, Graphpad Prism version 5.03 was used.

Setting [1] is: SNAP 200 or 500 μmol/L, 60 minutes.

T1 sequence (P02554 whole entry): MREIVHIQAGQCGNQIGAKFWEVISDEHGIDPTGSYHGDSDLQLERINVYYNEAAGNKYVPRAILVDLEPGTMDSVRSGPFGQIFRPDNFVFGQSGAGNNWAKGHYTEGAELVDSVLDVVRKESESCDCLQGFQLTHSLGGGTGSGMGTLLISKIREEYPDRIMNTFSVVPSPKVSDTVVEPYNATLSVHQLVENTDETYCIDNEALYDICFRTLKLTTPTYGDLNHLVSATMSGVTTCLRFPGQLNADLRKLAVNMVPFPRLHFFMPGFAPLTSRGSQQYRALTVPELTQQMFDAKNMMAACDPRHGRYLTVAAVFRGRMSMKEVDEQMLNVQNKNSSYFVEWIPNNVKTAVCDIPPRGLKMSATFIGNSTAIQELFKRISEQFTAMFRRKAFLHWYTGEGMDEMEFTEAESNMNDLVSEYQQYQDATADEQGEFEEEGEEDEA
T1 sequence (P02550 whole entry): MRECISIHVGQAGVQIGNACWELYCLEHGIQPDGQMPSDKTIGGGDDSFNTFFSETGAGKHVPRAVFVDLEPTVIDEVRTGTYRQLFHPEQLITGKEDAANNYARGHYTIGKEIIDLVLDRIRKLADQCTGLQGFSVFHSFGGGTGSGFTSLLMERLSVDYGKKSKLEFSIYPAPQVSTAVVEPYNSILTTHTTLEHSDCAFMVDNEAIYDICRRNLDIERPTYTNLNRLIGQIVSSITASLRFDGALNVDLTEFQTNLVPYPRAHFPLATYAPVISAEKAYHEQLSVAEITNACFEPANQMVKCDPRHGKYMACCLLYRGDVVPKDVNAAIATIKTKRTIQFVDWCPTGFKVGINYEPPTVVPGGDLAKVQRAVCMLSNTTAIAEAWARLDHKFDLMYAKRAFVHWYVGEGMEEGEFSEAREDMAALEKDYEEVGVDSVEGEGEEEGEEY

In the case of `CC(=O)NC(C(=O)O)C(C)(C)SN=O` (racemic) [SNAP, S-nitroso-N-acetyl-D,L-penicillamine], where the note is “SNAP 200 or 500 μmol/L, absence of taxanes, 60 minutes”, the “action of SNAP on the spontaneous tubulin polymerization reaction” value is listed as “significantly suppressed”. Besides, under setting [1], the “action of SNAP on the tubulin polymerization reaction promoted by docetaxel” value is reported as “significantly suppressed” and the “action of SNAP on the tubulin polymerization reaction promoted by paclitaxel” value is recorded as “significantly suppressed”.

Consider `CC(=O)O[C@@]12CO[C@@H]1C[C@H](O)[C@@]1(C)C(=O)[C@H](O)C3=C(C)[C@@H](OC(=O)[C@H](O)[C@@H](NC(=O)OC(C)(C)C)c4ccccc4)C[C@@](O)([C@@H](OC(=O)c4ccccc4)[C@H]21)C3(C)C` [docetaxel], for which the “tubulin polymerization (fluorescence intensity) as compared with the taxane-untreated group” value (docetaxel final concentration 1 μmol/L, 60 minutes after initiation, P<0.001) was 184.1%.
